Entries after “also recorded” stand apart in the source; their conditions may differ.
What was measured:
[1] = Solubility in aqueous systems; format: physicochemical
[2] = rat, in vivo, po
MT1-MMP [3] = biological target: T1, MT1-MMP (Homo sapiens, UniProt P50281); test: Direct digestion of [3H-methyl]-gelatin by membrane fraction of MT1-MMP-transfected COS-1 cells; format: biochemical; conditions: 18 hr at 37° C.
Method: Confluent MT1-MMP-transfected COS-1 cells (2×10^7 cells) were harvested following treatment with trypsin-EDTA and washed thoroughly. Cells were suspended in 25 mM sucrose, 5 mM MgCl2 in Tris base, pH 7.4, and then subjected to nitrogen (N2) cavitation at 1000 p.s.i. for 30 min at 4° C. Whole cells and nuclei were removed by centrifugation at 770×g for 10 min, and the postnuclear supernatant was centrifuged at 6,000×g for 15 min to remove heavy organelles. The supernatant was centrifuged at 100,000×g for 60 min, and the cell membrane fraction, comprising plasma membranes, Golgi, and ribosomes, was recovered in the pellet. The 100,000×g supernatant was designated as cytosol.
Radiolabeled (^3H) collagen type I was denatured, to unravel the triple helix to produce [^3H-methyl]-gelatin. When separated by SDS-PAGE, and examined by autoradiography, the denatured collagen yields three bands: α(˜100 kDa), β(˜200 kDa), and γ(˜300 kDa), corresponding to the various components of the collagen in the sample. The tritiated gelatin substrate was incubated with a membrane fraction obtained by MT1-MMP-transfected COS-1 cells as described above. The gelatinolytic activity was calculated as % lysis of the α, β, and γ intact gelatin components assessed by laser densitometer scanning of the fluorogram.

MT1-MMP [4] = biological target: T1, MT1-MMP; test: Activation of pro-gelatinase A by MT1-MMP membrane fraction, gelatin zymography; format: biochemical; conditions: 10, 20, and 50 μM; 18 h at 37° C.
Method: Recombinant pro-gelatinase A (72 kDa type IV gelatinase) can be activated to from 62 kDa active gelatinase by MT-MMP-containing plasma membrane fractions. To examine the ability of a tetracycline compound to inhibit this gelatinase activating property of MT-MMP, membrane fractions obtained according to Example 1B were incubated with recombinant human pro-gelatinase A for 18 h at 37° C. with or without CMT-3, and examined by zymography to evaluate enzyme activation.
Specifically, pro-MMP-2 was obtained from the culture-conditioned medium from MMP-2-transfected COS-1 cells.
Conditioned media were collected from the cultures that had been treated with CMT-3 for 2 days. Media were then incubated with SDS-gel electrophoresis sample buffer for 30 min at room temperature, and then analyzed by gel electrophoresis on SDS-polyacrylamide gel (10%) containing gelatin (1 mg/mL; Novex, Inc.). Following electrophoresis, the gels were washed twice with 0.25% TRITON® X-100 for 30 min each (to renature the gelatinase), and incubated for 18-24 hr at 37° C. in a Tris-HCl buffer, pH 7.4 (see, e.g., Lokeshwar 1993). After incubation, the gels were briefly rinsed in distilled water and stained with 0.25% Coomassie brilliant blue R250. The location of gelatinase activity in the gels is visible as a colorless area on an otherwise uniform blue background, indicative of digested gelatin.

MT1-MMP [5] = biological target: T1, MT1-MMP; test: Caseinolytic activity of recombinant MT1-MMP, casein zymography; format: biochemical
Method: In FIG. 3A, the proteolytic activity of MT1-MMP and its inhibition by a tetracycline compound was assessed using casein zymography: […]

MT1-MMP [6] = biological target: T1, MT1-MMP; test: Conversion of pro-gelatinase A to active gelatinase A by recombinant MT1-MMP, SDS-PAGE; format: biochemical
Method: The proteolytic activity of MT1-MMP was assessed using gelatinase A zymography. Pure recombinant pro-MMP-2 (72 kDa gelatinase or pro-gelatinase A) and MT1-MMP were co-incubated in the presence or absence of CMT-3 (0.5-3.0 μM). After incubation, the enzyme mixture was examined by SDS-PAGE and the protein (enzyme) bands were stained with Coomassie brilliant blue.

MG-63 osteosarcoma cells = test: MMP-2 expression and MT1-MMP-dependent activation of pro-MMP-2, concanavalin A-treated MG-63 cells, zymography; format: cell-based, human
Method: MG-63 cells, an osteosarcoma cell line, were grown in culture and treated with 40 μg/mL concanavalin A to induce MT1-MMP-dependent activation of pro-MMP-2. Culture-conditioned medium was collected, as a source of pro-MMP-2, and was incubated in the presence of the membrane fraction of COS-1 cells transfected to express MT1-MMP.

[7] = test system: HT-1080 fibrosarcoma cells; test: Matrigel invasion of HT-1080 fibrosarcoma cells; format: cell-based, human; conditions: for concentration of maximal inhibition of invasion: 24 hr, 10% serum
Method: HT-1080 cells were allowed to invade through Matrigel (Collaborative Research, Bedford, Mass.) for 24 hr in medium containing 10% serum. CMT-3 or CMT-8 were added to the medium to assess their ability to inhibit invasivity of the cells. CMT-3 was tested at final concentrations of 1 μM or 10 μM; CMT-8 was tested twice at a final concentration of 50 μM. The invading cells were counted, and the relative numbers of cells were expressed as means of triplicate measurements.

[8] = test system: HT-1080 fibrosarcoma cells; test: Transwell migration of HT-1080 fibrosarcoma cells; format: cell-based, human; conditions: 18 hr, 10% serum; for inhibition of HT-1080 fibrosarcoma cell migration: 0.5 μM
Source text: HT-1080 cells were allowed to migrate in the presence of medium containing 10% serum for 18 hr in Transwell chambers (Costar, Cambridge, Mass.). […] The data are expressed as means of triplicate measurements.

studied cell lines [9] = test: Cytotoxicity to the cells under the conditions used; format: cell-based; conditions: data not shown
cell surface integrins = test: Blocking of cell surface integrins; format: cell-based; conditions: data not shown
studied cell lines [10] = test: Initial attachment and spreading of cells on extracellular matrix or Matrigel substrate; format: cell-based; conditions: data not shown
Serum half-life = conditions: in vivo
normal cells = test: Cytotoxicity in normal cells; format: cell-based
[11] = test system: prostate and melanoma tumor; conditions: in vivo; Lokeshwar et al. 1998; Seftor et al. 1998; cited from earlier work

CN(C)C1C(=O)C(C#N)=C(O)C2(O)C(=O)C3=C(O)c4c(O)cccc4C(C)(O)C3CC12 (stereo not shown) [CMT-2, tetracyclinonitrile]
solubility in aqueous systems [1]: low solubility
blood levels [2]: no detectable blood levels

NC(=O)C1=C(O)C[C@@H]2C[C@@H]3Cc4cccc(O)c4C(=O)C3=C(O)[C@]2(O)C1=O [CMT-3, 6-demethyl-6-deoxy-4-de(dimethylamino)tetracycline]
inhibition of gelatinolytic activity (MT1-MMP [3]; 5 μM): 16.3%
inhibition of gelatinolytic activity (MT1-MMP [3]; 10 μM): 35%
inhibition of gelatinolytic activity (MT1-MMP [3]; 20 μM): 32%
inhibition of MT1-MMP-induced activation of pro-gelatinase A (MT1-MMP [4]): inhibited
IC50 (MT1-MMP [5]): 1000 to 3000 nM
inhibition of caseinolytic activity (MT1-MMP [5]; 0.5, 1.5, and 3.0 μM, 50 ng MT1-MMP, β-casein 52 μM): progressive inhibition of caseinolytic activity by increasing
inhibition of the formation of the smaller molecular weight species of gelatinase A (MT1-MMP [6]; 3.0 μM): essentially completely inhibits
inhibition of the conversion of pro-gelatinase A to active gelatinase A (MT1-MMP [6]; 0.5, 1.0, 1.5 and 3.0 μM, 50 ng recombinant MT1-MMP): progressive inhibition
gelatin-degrading activity of incubated medium (MG-63 osteosarcoma cells; 0.5 μM to 3.5 μM): inhibited
percent of activated MMP-2 in the total expressed MMP-2 (MG-63 osteosarcoma cells; 0.5 μM to 3.5 μM): decreased in a dose-dependent fashion
active MMP-2 (MG-63 osteosarcoma cells; 3.0 μM and 3.5 μM): no active MMP-2 was detected
prevention of invasion in comparison to CMT-8 [7]: slightly more effective
concentration of maximal inhibition of invasion [7]: 50 µM
inhibition of HT-1080 fibrosarcoma cell migration [8]: clear inhibition; also recorded: Effective inhibition
concentration of maximal inhibition of migration [8]: 50 µM
cytotoxicity to the cells (studied cell lines [9]): not cytotoxic
blocking of cell surface integrins (cell surface integrins): did not block
initial attachment and spreading of studied cell lines (studied cell lines [10]): did not prevent
serum half-life (Serum half-life): approximately 28 hr
cytotoxicity in normal cells (normal cells): little or substantially no cytotoxicity
tumor growth and metastasis [11]: suppress prostate and melanoma tumor growth and metastasis

C[C@H]1c2cccc(O)c2C(O)=C2C(=O)[C@]3(O)C(O)=C(C(N)=O)C(=O)C[C@@H]3[C@@H](O)[C@@H]21 [CMT-8, 6-deoxy-5α-hydroxy-4-de(dimethylamino)tetracycline]
concentration of maximal inhibition of invasion [7]: 50 µM
inhibition of HT-1080 fibrosarcoma cell migration [8]: clear inhibition; also recorded: Effective inhibition
concentration of maximal inhibition of migration [8]: 50 µM
cytotoxicity to the cells (studied cell lines [9]): not cytotoxic
blocking of cell surface integrins (cell surface integrins): did not block
initial attachment and spreading of studied cell lines (studied cell lines [10]): did not prevent

O=C(O)CN(CCN(CC(=O)O)CC(=O)O)CC(=O)O [EDTA, reference compound]
inhibition of caseinolytic activity (MT1-MMP [5]; 2 mM): did inhibit

O=S(=O)(F)Cc1ccccc1 [PMSF, reference compound]
inhibition of caseinolytic activity (MT1-MMP [5]; 0.5 mM): did not inhibit

Source: patent publication US20020045603A1, “Method of inhibiting membrane-type matrix metalloproteinase” (The Research Foundation of State University of New York, priority 1998, published 2002)
